Data as given in the supplement of paper PMC10307832.

Legend:
Test in all cases: relative viability (nuclei count vs DMSO), 5 days (fraction); higher = more cells survive
NCI-H2009 = test system: NCI-H2009
Outline: (§1)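 Five library-drug doses in √10 steps were combined with a fixed anchor-drug dose, or a single drug was given alone, by pin tool to lung cancer cell lines in 1536-well plates the day after seeding. Nuclei were stained and counted after 5 days. Relative viability is the nuclei count in treated wells over that in vehicle wells, taken as the median of duplicate plates.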

HOP-62 = test system: HOP-62
Outline: as §1

NCI-H1395 = test system: NCI-H1395
Outline: as §1

NCI-H1975 = test system: NCI-H1975
Outline: as §1

NCI-H1437 = test system: NCI-H1437
Outline: as §1

EMC-BAC-2 = test system: EMC-BAC-2
Outline: as §1

CAL-12T = test system: CAL-12T
Outline: as §1

NCI-H522 = test system: NCI-H522
Outline: as §1

NCI-H1915 = test system: NCI-H1915
Outline: as §1

NCI-H2228 = test system: NCI-H2228
Outline: as §1

NCI-H460 = test system: NCI-H460
Outline: as §1

COR-L 105 = test system: COR-L 105
Outline: as §1

SK-LU-1 = test system: SK-LU-1
Outline: as §1

NCI-H23 = test system: NCI-H23
Outline: as §1

HCC-827 = test system: HCC-827
Outline: as §1

NCI-H1792 = test system: NCI-H1792
Outline: as §1

NCI-H1755 = test system: NCI-H1755
Outline: as §1

HARA = test system: HARA
Outline: as §1

A-427 = test system: A-427
Outline: as §1

LCLC-103H = test system: LCLC-103H
Outline: as §1

SW 1573 = test system: SW 1573
Outline: as §1

HCC-366 = test system: HCC-366
Outline: as §1

NCI-H1355 = test system: NCI-H1355
Outline: as §1

NCI-H727 = test system: NCI-H727
Outline: as §1

CC(C)Oc1cc(Nc2nc(N[C@@H](C)c3ccc(F)cn3)ncc2Cl)n[nH]1 [AZ23] + Cc1nc(Nc2ncc(C(=O)Nc3c(C)cccc3Cl)s2)cc(N2CCN(CCO)CC2)n1 [Dasatinib] (partner 0.075 µM)
relative viability (NCI-H2009; first compound 0.01 µM): 0.278
relative viability (NCI-H2009; first compound 0.03162 µM): 0.341
relative viability (NCI-H2009; first compound 0.3162 µM): 0.279
relative viability (HOP-62; first compound 0.01 µM): 0.702
relative viability (HOP-62; first compound 0.03162 µM): 0.684
relative viability (HOP-62; first compound 0.3162 µM): 0.631
relative viability (NCI-H1395; first compound 0.03162 µM): 0.481
relative viability (NCI-H1395; first compound 0.3162 µM): 0.359
relative viability (NCI-H1975; first compound 0.01 µM): 0.453
relative viability (NCI-H1975; first compound 0.03162 µM): 0.405
relative viability (NCI-H1975; first compound 0.3162 µM): 0.326
relative viability (NCI-H1437; first compound 0.01 µM): 0.354
relative viability (NCI-H1437; first compound 0.03162 µM): 0.443
relative viability (NCI-H1437; first compound 0.3162 µM): 0.418
relative viability (EMC-BAC-2; first compound 0.01 µM): 0.308
relative viability (EMC-BAC-2; first compound 0.03162 µM): 0.381
relative viability (EMC-BAC-2; first compound 0.3162 µM): 0.364
relative viability (CAL-12T; first compound 0.03162 µM): 0.363
relative viability (CAL-12T; first compound 0.3162 µM): 0.221
relative viability (NCI-H522; first compound 0.01 µM): 0.716
relative viability (NCI-H522; first compound 0.03162 µM): 0.933
relative viability (NCI-H522; first compound 0.3162 µM): 1.02
relative viability (NCI-H1915; first compound 0.01 µM): 0.33
relative viability (NCI-H1915; first compound 0.03162 µM): 0.342
relative viability (NCI-H1915; first compound 0.3162 µM): 0.29
relative viability (NCI-H2228; first compound 0.01 µM): 0.571
relative viability (NCI-H2228; first compound 0.03162 µM): 0.504
relative viability (NCI-H2228; first compound 0.3162 µM): 0.445
relative viability (NCI-H460; first compound 0.01 µM): 0.295
relative viability (NCI-H460; first compound 0.03162 µM): 0.592
relative viability (NCI-H460; first compound 0.3162 µM): 0.503
relative viability (COR-L 105; first compound 0.01 µM): 0.339
relative viability (COR-L 105; first compound 0.03162 µM): 0.374
relative viability (COR-L 105; first compound 0.3162 µM): 0.341
relative viability (SK-LU-1; first compound 0.03162 µM): 0.193
relative viability (SK-LU-1; first compound 0.3162 µM): 0.152
relative viability (NCI-H23; first compound 0.03162 µM): 0.883
relative viability (NCI-H23; first compound 0.3162 µM): 0.761
relative viability (HCC-827; first compound 0.01 µM): 0.301
relative viability (HCC-827; first compound 0.03162 µM): 0.288
relative viability (HCC-827; first compound 0.3162 µM): 0.282
relative viability (NCI-H1792; first compound 0.01 µM): 0.804
relative viability (NCI-H1792; first compound 0.03162 µM): 1.16
relative viability (NCI-H1792; first compound 0.3162 µM): 0.672
relative viability (NCI-H1755; first compound 0.01 µM): 0.456
relative viability (NCI-H1755; first compound 0.03162 µM): 0.488
relative viability (NCI-H1755; first compound 0.3162 µM): 0.357
relative viability (HARA; first compound 0.03162 µM): 0.37
relative viability (HARA; first compound 0.3162 µM): 0.217
relative viability (A-427; first compound 0.01 µM): 0.701
relative viability (A-427; first compound 0.03162 µM): 0.862
relative viability (A-427; first compound 0.3162 µM): 0.684
relative viability (LCLC-103H; first compound 0.01 µM): 0.443
relative viability (LCLC-103H; first compound 0.03162 µM): 0.576
relative viability (LCLC-103H; first compound 0.3162 µM): 0.499
relative viability (SW 1573; first compound 0.01 µM): 0.747
relative viability (SW 1573; first compound 0.03162 µM): 0.605
relative viability (SW 1573; first compound 0.3162 µM): 0.52
relative viability (HCC-366; first compound 0.01 µM): 0.58
relative viability (HCC-366; first compound 0.03162 µM): 0.705
relative viability (HCC-366; first compound 0.3162 µM): 0.79
relative viability (NCI-H1355; first compound 0.01 µM): 0.793
relative viability (NCI-H1355; first compound 0.03162 µM): 0.833
relative viability (NCI-H1355; first compound 0.3162 µM): 0.633
relative viability (NCI-H727; first compound 0.01 µM): 0.393
relative viability (NCI-H727; first compound 0.03162 µM): 0.402
relative viability (NCI-H727; first compound 0.3162 µM): 0.362

CC(C)Oc1cc(Nc2nc(N[C@@H](C)c3ccc(F)cn3)ncc2Cl)n[nH]1 [AZ23] + N=C(N)NC(=N)NCCc1ccccc1 [Phenformin] (partner 250 µM)
relative viability (NCI-H2009; first compound 0.01 µM): 0.508
relative viability (NCI-H2009; first compound 0.03162 µM): 0.539
relative viability (NCI-H2009; first compound 0.3162 µM): 0.63
relative viability (HOP-62; first compound 0.01 µM): 0.684
relative viability (HOP-62; first compound 0.03162 µM): 0.792
relative viability (HOP-62; first compound 0.3162 µM): 0.79
relative viability (NCI-H1395; first compound 0.03162 µM): 0.483
relative viability (NCI-H1395; first compound 0.3162 µM): 0.451
relative viability (NCI-H1975; first compound 0.01 µM): 0.43
relative viability (NCI-H1975; first compound 0.03162 µM): 0.416
relative viability (NCI-H1975; first compound 0.3162 µM): 0.397
relative viability (NCI-H1437; first compound 0.01 µM): 0.298
relative viability (NCI-H1437; first compound 0.03162 µM): 0.336
relative viability (NCI-H1437; first compound 0.3162 µM): 0.345
relative viability (EMC-BAC-2; first compound 0.01 µM): 0.545
relative viability (EMC-BAC-2; first compound 0.03162 µM): 0.603
relative viability (EMC-BAC-2; first compound 0.3162 µM): 0.526
relative viability (CAL-12T; first compound 0.03162 µM): 0.591
relative viability (CAL-12T; first compound 0.3162 µM): 0.524
relative viability (NCI-H522; first compound 0.01 µM): 0.711
relative viability (NCI-H522; first compound 0.03162 µM): 0.662
relative viability (NCI-H522; first compound 0.3162 µM): 0.656
relative viability (NCI-H1915; first compound 0.01 µM): 0.4
relative viability (NCI-H1915; first compound 0.03162 µM): 0.373
relative viability (NCI-H1915; first compound 0.3162 µM): 0.372
relative viability (NCI-H2228; first compound 0.01 µM): 0.401
relative viability (NCI-H2228; first compound 0.03162 µM): 0.302
relative viability (NCI-H2228; first compound 0.3162 µM): 0.252
relative viability (NCI-H460; first compound 0.01 µM): 0.335
relative viability (NCI-H460; first compound 0.03162 µM): 0.601
relative viability (NCI-H460; first compound 0.3162 µM): 0.549
relative viability (COR-L 105; first compound 0.01 µM): 0.456
relative viability (COR-L 105; first compound 0.03162 µM): 0.577
relative viability (COR-L 105; first compound 0.3162 µM): 0.508
relative viability (SK-LU-1; first compound 0.03162 µM): 0.586
relative viability (SK-LU-1; first compound 0.3162 µM): 0.517
relative viability (NCI-H23; first compound 0.03162 µM): 0.89
relative viability (NCI-H23; first compound 0.3162 µM): 0.783
relative viability (HCC-827; first compound 0.01 µM): 0.436
relative viability (HCC-827; first compound 0.03162 µM): 0.42
relative viability (HCC-827; first compound 0.3162 µM): 0.404
relative viability (NCI-H1792; first compound 0.03162 µM): 0.397
relative viability (NCI-H1792; first compound 0.3162 µM): 0.239
relative viability (NCI-H1755; first compound 0.01 µM): 0.689
relative viability (NCI-H1755; first compound 0.03162 µM): 0.651
relative viability (NCI-H1755; first compound 0.3162 µM): 0.673
relative viability (HARA; first compound 0.03162 µM): 0.589
relative viability (HARA; first compound 0.3162 µM): 0.471
relative viability (A-427; first compound 0.01 µM): 0.301
relative viability (A-427; first compound 0.03162 µM): 0.365
relative viability (A-427; first compound 0.3162 µM): 0.281
relative viability (LCLC-103H; first compound 0.01 µM): 0.339
relative viability (LCLC-103H; first compound 0.03162 µM): 0.352
relative viability (LCLC-103H; first compound 0.3162 µM): 0.333
relative viability (SW 1573; first compound 0.01 µM): 0.347
relative viability (SW 1573; first compound 0.03162 µM): 0.512
relative viability (SW 1573; first compound 0.3162 µM): 0.465
relative viability (HCC-366; first compound 0.01 µM): 0.614
relative viability (HCC-366; first compound 0.03162 µM): 0.641
relative viability (HCC-366; first compound 0.3162 µM): 0.658
relative viability (NCI-H1355; first compound 0.01 µM): 0.462
relative viability (NCI-H1355; first compound 0.03162 µM): 0.483
relative viability (NCI-H1355; first compound 0.3162 µM): 0.455
relative viability (NCI-H727; first compound 0.01 µM): 0.571
relative viability (NCI-H727; first compound 0.03162 µM): 0.552
relative viability (NCI-H727; first compound 0.3162 µM): 0.485
